Source: patent US8748423B2, “Compositions and methods for the prevention and treatment of cancer” (Kinex Pharmaceuticals, LLC, priority 2010, dated 2014)
Blank lines part the entries; values can stand above or below the compound they belong to.

Key:
[1] = system: colon tumor cell lines KM12; experiment: standard tumor growth inhibition assay, KM12; type: cell-based; conditions: Homo sapiens, KM12, read-out: GI50 (KM12)
Method: (§1) These GI50's were determined using the standard tumor growth inhibition assays, similar to that described in detail for the HT29 cell line above, and the following cell lines: colon tumor cell lines KM12, lung cancer cell line H460 and lung cancer cell line A549 (all are NCI standard tumor cell lines).

[2] = system: lung cancer cell line H460; experiment: standard tumor growth inhibition assay, H460; type: cell-based; conditions: Homo sapiens, NCI-H460, read-out: GI50 (H460)
Method: as §1

c-Src 3T3 cells = experiment: BrdU cell growth inhibition assay, c-Src 3T3; type: cell-based, mouse
Method: (§2) The GI50s for several of the compounds of the invention were assayed as described herein.
The c-Src 3T3 is a mouse fibroblast NIH 3T3 normal cell line that has been transfected with a point-mutant of human c-Src wherein tyrosine 527 has been converted to a phenylalanine. This mutation results in “constitutively active” c-Src because phosphorylation on tyrosine 527 results in auto-inhibition of Src by having it fold back on its own SH2 domain. With a Phe there, this phosphorylation can't occur and therefore auto-inhibition can't occur. Thus, the always fully active mutant Src then converts the normal mouse fibroblasts into rapidly growing tumor cells. […]
In the BrdU Assay for cell growth inhibition, quantitation of cell proliferation was based on the measurement of BrdU incorporation during DNA synthesis. […]
The growth inhibition (GI) is determined from the formula GI=(T0−Tn×100/T0−CONn) where T0 is the BrdU growth of untreated cells at time “0”, Tn is the BrdU growth of treated cells at day “n” and CONn is the control BrdU growth of control cells at day “n”. […]
Seeded 96 well plates were allowed to attach overnight for 18-24 hours, either at 37° C. and 5% CO2 for HT-29 or at 37° C. and 10% CO2 for c-Src 3T3. Approx 18-24 hours after seeding, the initial growth of cells (T0) was determined for untreated cells using the BrdU assay. […]

HT29 cell line = experiment: BrdU cell growth inhibition assay, HT-29; type: cell-based; conditions: Homo sapiens
Method: as §2
The HT29 cell line is a NCI standard human colon carcinoma cell line. […] HT29 cells were routinely cultured in McCoy's 5A medium supplemented with Fetal Bovine Serum (1.5% v/v) and L-glutamine (2 mM).
In the BrdU Assay for cell growth inhibition, quantitation of cell proliferation was based on the measurement of BrdU incorporation during DNA synthesis. The Cell Proliferation ELISA BrdU assay kit (colorimetric) was obtained from Roche Applied Science and performed as per vendor instructions.
The growth inhibition (GI) is determined from the formula GI=(T0−Tn×100/T0−CONn) where T0 is the BrdU growth of untreated cells at time “0”, Tn is the BrdU growth of treated cells at day “n” and CONn is the control BrdU growth of control cells at day “n”. The GI50 was extrapolated and the data plotted using XL-Fit 4.0 software.
For 96 well culture plate experiments, c-Src 3T3 medium was supplemented with 10 mM HEPES buffer. […]
Seeded 96 well plates were allowed to attach overnight for 18-24 hours, either at 37° C. and 5% CO2 for HT-29 or at 37° C. and 10% CO2 for c-Src 3T3. Approx 18-24 hours after seeding, the initial growth of cells (T0) was determined for untreated cells using the BrdU assay. […] Plates were assayed for BrdU and the data analyzed as above for GI50. […]

GL261 glioma = experiment: intracranial GL261 glioma survival study; type: in vivo, C57BL/6 mice; conditions: 5 mg/kg weekly oral
Method: (§3) The studies were conducted in C57BL/6 mice. GL261 glioma cells (1×10^5 in 5 μl DMEM) were implanted intracranial coordinates: bregma, lateral 2.0 mm, anterior 1.2 mm, 3.0 mm depth dura. Treatment was initiated 3 days post implantation.
The median survival range and the log-rank (Mantel-Cox) statistical test results comparing the survival distributions of the samples.

[3] = body weight in GL261 glioma survival study; type: in vivo, C57BL/6 mice
Method: as §3
FIGS. 2A-F show the weight gain in each of the C57BL/6 mice in the different treatment groups. The average weight at endpoint for each of the treatment groups is shown below in Table 12. FIG. 3 is a graph showing the average weights over a 40-day period for each of the treatment groups.

Daoy = experiment: brain tumor cell line growth inhibition, Daoy; type: cell-based; conditions: Homo sapiens, desmoplastic cerebellar medulloblastoma
Method: (§4) These GI50s were determined using standard tumor growth inhibition assays.

SK-N-MC = experiment: brain tumor cell line growth inhibition, SK-N-MC; type: cell-based; conditions: Homo sapiens, neuroepithelioma
Method: as §4

SW1088 = experiment: brain tumor cell line growth inhibition, SW1088; type: cell-based; conditions: Homo sapiens; SW1088, astrocytoma
Method: as §4

LN-18 = experiment: brain tumor cell line growth inhibition, LN-18; type: cell-based; conditions: Homo sapiens; LN-18, glioblastoma; glioma
Method: as §4

SK-N-FI = experiment: brain tumor cell line growth inhibition, SK-N-FI; type: cell-based; conditions: Homo sapiens, neuroblastoma
Method: as §4

U87 = experiment: brain tumor cell line growth inhibition, U87; type: cell-based; conditions: Homo sapiens, U-87 MG; U87, glioblastoma; astrocytoma
Method: as §4

GL261 = experiment: brain tumor cell line growth inhibition, GL261; type: cell-based; conditions: GL261, mouse glioblastoma
Method: as §4

Structure (SMILES): O=C(Cc1ccc(-c2ccccc2)cc1)NCc1cccc(F)c1 [Compound 2]
- GI50 [1]: 410 nM
- GI50 [2]: 890 nM

Structure (SMILES): O=C(Cc1ccc(-c2ccc(OCCN3CCOCC3)cc2)cn1)NCc1cccc(F)c1 [Compound 38]
- GI50 (c-Src 3T3) (c-Src 3T3 cells): inactive

- GI50 (HT29 cell line): 26 nM
Structure (SMILES): CN1CCN(CCOc2ccc(-c3ccc(CC(=O)NCc4cccc(F)c4)nc3)c(F)c2)CC1 [Compound 137]

Structure (SMILES): Cn1nnc2c(C(N)=O)ncn2c1=O [Temodar ®, reference compound]
- Median survival (GL261 glioma): 29
- survival Range (GL261 glioma): 26-29
- Average weight at endpoint ([3]; 5 mg/kg (Temodar, once weekly)): 13.3 g

- IC50 (Daoy): 13.6 nM
- IC50 (SK-N-MC): 5.8 nM
- IC50 (SW1088): 76.1 nM
- IC50 (LN-18): 14.5 nM
- IC50 (SK-N-FI): 1.7 nM
- IC50 (U87): 33.1 nM
- IC50 (GL261): 13.7 nM
Structure (SMILES): O=C(Cc1ccc(-c2ccc(OCCN3CCOCC3)cc2)cn1)NCc1ccccc1 [Compound 134, 2-(5-(4-(2-morpholinoethoxy)phenyl)pyridin-2-yl)-N-benzylacetamide]
- Average weight at endpoint ([3]; 5 mg/kg (Compound 134, bid)): 14.3 g
